Measurements as given in PubChem BioAssay AID2060899 (Molecular Pharmacology Branch, DTP, NCI, 2025).

Test system: 565726-208-R1-J5-PDC complex spheroids, growth inhibition
Test: Anticancer human tumor 565726-208-R1-J5-PDC patient-derived pancreatic adenocarcinoma cell line growth inhibition [RAS]
Settings: for IC50: curve of first compound; for viability, T/C: stronger effect = lower value
Method in brief: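 Multi-cell-type spheroids: tumor cells plus HUVEC endothelial cells and mesenchymal stem cells. RAS-pathway inhibitors were combined with targeted agents, each dosed in half-log steps down from clinical Cmax, or from 10 microM when Cmax was unknown.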

[1] = second compound 0.0316 µM, first compound 0.0316 µM
[2] = second compound 0.0316 µM, first compound 0.1 µM
[3] = second compound 0.0316 µM, first compound 0.316 µM
[4] = second compound 0.0316 µM, first compound 1 µM
[5] = second compound 0.0316 µM, first compound 3.16 µM
[6] = second compound 0.0316 µM, first compound 10 µM
[7] = second compound 0.1 µM, first compound 0.0316 µM
[8] = second compound 0.1 µM, first compound 0.1 µM
[9] = second compound 0.1 µM, first compound 0.316 µM
[10] = second compound 0.1 µM, first compound 1 µM
[11] = second compound 0.1 µM, first compound 3.16 µM
[12] = second compound 0.1 µM, first compound 10 µM
[13] = second compound 0.316 µM, first compound 0.0316 µM
[14] = second compound 0.316 µM, first compound 0.1 µM
[15] = second compound 0.316 µM, first compound 0.316 µM
[16] = second compound 0.316 µM, first compound 1 µM
[17] = second compound 0.316 µM, first compound 3.16 µM
[18] = second compound 0.316 µM, first compound 10 µM
[19] = second compound 1 µM, first compound 0.0316 µM
[20] = second compound 1 µM, first compound 0.1 µM
[21] = second compound 1 µM, first compound 0.316 µM
[22] = second compound 1 µM, first compound 1 µM
[23] = second compound 1 µM, first compound 3.16 µM
[24] = second compound 1 µM, first compound 10 µM
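Also: spheroids exposed to compounds for seven days before readout.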
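For viability, T/C in this document: 100% = DMSO vehicle control viability.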

Work on `CCC(CC)c1cc(NC2CCC(N)C2)n2nccc2n1` (stereo unspecified) + C=CC(=O)N1CCN(c2nc(OCC3CCCN3C)nc3c(F)c(-c4nc(N)cc(C)c4C(F)(F)F)c(Cl)cc23)C(C)C1 yielded an IC50 (second compound 0.00316 µM) of 1930 nM, an IC50 (second compound 0.01 µM) of 1700 nM and an IC50 (second compound 0.0316 µM) of 1620 nM. The IC50 (second compound 0.1 µM) was 1600 nM, the IC50 (second compound 0.316 µM) was 1580 nM and the IC50 (second compound 1 µM) was 1720 nM. The viability, T/C (second compound 0.00316 µM, first compound 0.0316 µM) was 152%, the viability, T/C (second compound 0.00316 µM, first compound 0.1 µM) was 180% and the viability, T/C (second compound 0.00316 µM, first compound 0.316 µM) was 128%. The viability, T/C (second compound 0.00316 µM, first compound 1 µM) was 110%, the viability, T/C (second compound 0.00316 µM, first compound 3.16 µM) was 1.79% and the viability, T/C (second compound 0.00316 µM, first compound 10 µM) was 2.13%. It also gave a viability, T/C (second compound 0.01 µM, first compound 0.0316 µM) of 166%, a viability, T/C (second compound 0.01 µM, first compound 0.1 µM) of 179% and a viability, T/C (second compound 0.01 µM, first compound 0.316 µM) of 114%. The viability, T/C (second compound 0.01 µM, first compound 1 µM) was 94.6%, the viability, T/C (second compound 0.01 µM, first compound 3.16 µM) was 3.11% and the viability, T/C (second compound 0.01 µM, first compound 10 µM) was 1.95%. For the same compound, the viability, T/C [1] was 174%, the viability, T/C [2] was 170% and the viability, T/C [3] was 125%. For the same compound, the viability, T/C [4] was 88.1%, the viability, T/C [5] was 1.53% and the viability, T/C [6] was 2.03%. For the same compound, the viability, T/C [7] was 221%, the viability, T/C [8] was 184% and the viability, T/C [9] was 102%. For the same compound, the viability, T/C [10] was 96.2%, the viability, T/C [11] was 1.59% and the viability, T/C [12] was 2.52%. For the same compound, the viability, T/C [13] was 182%, the viability, T/C [14] was 169% and the viability, T/C [15] was 103%. The viability, T/C [16] was 92.5%, the viability, T/C [17] was 1.41% and the viability, T/C [18] was 2.15%. The viability, T/C [19] was 175%, the viability, T/C [20] was 176% and the viability, T/C [21] was 136%. For the same compound, the viability, T/C [22] was 92.7%, the viability, T/C [23] was 1.49% and the viability, T/C [24] was 1.88%.
Compound `C[C@@H](NC(=O)c1ncnc(N)c1Cl)c1ncc(C(=O)Nc2cc(C(F)(F)F)c(Cl)cn2)s1` + C#Cc1c(F)ccc2cc(O)cc(-c3ncc4c(N5CC6CCC(C5)N6)nc(OCC56CCCN5CC(F)C6)nc4c3F)c12 has an IC50 (second compound 0.0316 µM) of over 10000 nM, an IC50 (second compound 0.1 µM) of over 10000 nM and an IC50 (second compound 0.316 µM) of over 10000 nM. The IC50 (second compound 1 µM) was over 10000 nM, the IC50 (second compound 3.16 µM) was over 10000 nM and the IC50 (second compound 10 µM) was over 10000 nM. For the same compound, the viability, T/C [1] was 114%, the viability, T/C [2] was 167% and the viability, T/C [3] was 121%. It also gave a viability, T/C [4] of 102%, a viability, T/C [5] of 135% and a viability, T/C [6] of 129%. The viability, T/C [7] was 122%, the viability, T/C [8] was 166% and the viability, T/C [9] was 107%. It also gave a viability, T/C [10] of 108%, a viability, T/C [11] of 116% and a viability, T/C [12] of 127%. For the same compound, the viability, T/C [13] was 150%, the viability, T/C [14] was 147% and the viability, T/C [15] was 94.9%. It also gave a viability, T/C [16] of 110%, a viability, T/C [17] of 95.8% and a viability, T/C [18] of 112%. The viability, T/C [19] was 134%, the viability, T/C [20] was 135% and the viability, T/C [21] was 92.8%. It also gave a viability, T/C [22] of 89.6%, a viability, T/C [23] of 107% and a viability, T/C [24] of 105%. The viability, T/C (second compound 3.16 µM, first compound 0.0316 µM) was 110%, the viability, T/C (second compound 3.16 µM, first compound 0.1 µM) was 123% and the viability, T/C (second compound 3.16 µM, first compound 0.316 µM) was 72.8%. It also gave a viability, T/C (second compound 3.16 µM, first compound 1 µM) of 68.3%, a viability, T/C (second compound 3.16 µM, first compound 3.16 µM) of 65.4% and a viability, T/C (second compound 3.16 µM, first compound 10 µM) of 102%. For the same compound, the viability, T/C (second compound 10 µM, first compound 0.0316 µM) was 100%, the viability, T/C (second compound 10 µM, first compound 0.1 µM) was 102% and the viability, T/C (second compound 10 µM, first compound 0.316 µM) was 68.4%. It also gave a viability, T/C (second compound 10 µM, first compound 1 µM) of 64.8%, a viability, T/C (second compound 10 µM, first compound 3.16 µM) of 72.2% and a viability, T/C (second compound 10 µM, first compound 10 µM) of 72.8%.
Work on `CCN1CCN(Cc2ccc(Nc3ncc(F)c(-c4cc(F)c5nc(C)n(C(C)C)c5c4)n3)nc2)CC1` + CCn1c(-c2cccnc2C(C)OC)c2c3cc(ccc31)N1CCOC(CC(NC(=O)C(C(C)C)N(C)C(=O)C3(F)CCN(C(=O)C#CC(C)(C)N(C)C)CC3)C(=O)N3CCCC(N3)C(=O)OCC(C)(C)C2)C1 yielded an IC50 (second compound 0.000949 µM) of over 1000 nM, an IC50 (second compound 0.003 µM) of over 1000 nM and an IC50 (second compound 0.00949 µM) of over 1000 nM. The IC50 (second compound 0.03 µM) was over 1000 nM, the IC50 (second compound 0.0949 µM) was over 1000 nM and the IC50 (second compound 0.3 µM) was over 1000 nM. For the same compound, the viability, T/C (second compound 0.000949 µM, first compound 0.00316 µM) was 93.5%, the viability, T/C (second compound 0.000949 µM, first compound 0.01 µM) was 91.2% and the viability, T/C (second compound 0.000949 µM, first compound 0.0316 µM) was 80.6%. It also gave a viability, T/C (second compound 0.000949 µM, first compound 0.1 µM) of 74%, a viability, T/C (second compound 0.000949 µM, first compound 0.316 µM) of 59.3% and a viability, T/C (second compound 0.000949 µM, first compound 1 µM) of 56.2%. It also gave a viability, T/C (second compound 0.003 µM, first compound 0.00316 µM) of 105%, a viability, T/C (second compound 0.003 µM, first compound 0.01 µM) of 96% and a viability, T/C (second compound 0.003 µM, first compound 0.0316 µM) of 84.3%. For the same compound, the viability, T/C (second compound 0.003 µM, first compound 0.1 µM) was 74.7%, the viability, T/C (second compound 0.003 µM, first compound 0.316 µM) was 60.4% and the viability, T/C (second compound 0.003 µM, first compound 1 µM) was 61%. For the same compound, the viability, T/C (second compound 0.00949 µM, first compound 0.00316 µM) was 97.7%, the viability, T/C (second compound 0.00949 µM, first compound 0.01 µM) was 89.8% and the viability, T/C (second compound 0.00949 µM, first compound 0.0316 µM) was 84.4%. It also gave a viability, T/C (second compound 0.00949 µM, first compound 0.1 µM) of 69.4%, a viability, T/C (second compound 0.00949 µM, first compound 0.316 µM) of 64.3% and a viability, T/C (second compound 0.00949 µM, first compound 1 µM) of 56%. The viability, T/C (second compound 0.03 µM, first compound 0.00316 µM) was 91.5%, the viability, T/C (second compound 0.03 µM, first compound 0.01 µM) was 94.3% and the viability, T/C (second compound 0.03 µM, first compound 0.0316 µM) was 85.1%. It also gave a viability, T/C (second compound 0.03 µM, first compound 0.1 µM) of 72.7%, a viability, T/C (second compound 0.03 µM, first compound 0.316 µM) of 62% and a viability, T/C (second compound 0.03 µM, first compound 1 µM) of 57.4%. For the same compound, the viability, T/C (second compound 0.0949 µM, first compound 0.00316 µM) was 95%, the viability, T/C (second compound 0.0949 µM, first compound 0.01 µM) was 94.7% and the viability, T/C (second compound 0.0949 µM, first compound 0.0316 µM) was 85.7%. The viability, T/C (second compound 0.0949 µM, first compound 0.1 µM) was 67.9%, the viability, T/C (second compound 0.0949 µM, first compound 0.316 µM) was 54.1% and the viability, T/C (second compound 0.0949 µM, first compound 1 µM) was 59.5%. For the same compound, the viability, T/C (second compound 0.3 µM, first compound 0.00316 µM) was 85%, the viability, T/C (second compound 0.3 µM, first compound 0.01 µM) was 82.1% and the viability, T/C (second compound 0.3 µM, first compound 0.0316 µM) was 76.5%. For the same compound, the viability, T/C (second compound 0.3 µM, first compound 0.1 µM) was 64.1%, the viability, T/C (second compound 0.3 µM, first compound 0.316 µM) was 56.2% and the viability, T/C (second compound 0.3 µM, first compound 1 µM) was 55.3%.
